{
  "source": "patent US20240207265A1",
  "about": "“TREATMENT OF CNS DISEASES WITH sGC STIMULATORS” (Tisento Therapeutics Inc., priority 2021, published 2024)",
  "key": {"normotensive rats": {"test_system": "normotensive rats", "experiment": "Blood pressure effects in normotensive rats after acute oral dose", "format": "in vivo, rat", "conditions": "for Peak ΔVMAP (mm Hg): sodium salt in Milli-Q water, vehicle-adjusted MAP; for Time at Peak: time of peak ΔVMAP", "description": "Male, normotensive Sprague Dawley rats were purchased from Charles River Laboratories. These rats have indwelling femoral artery catheters installed. Animals were harnessed to a tether system and attached to pressure transducers to monitor cardiovascular (CV) parameters, specifically mean arterial pressure (MAP) and heart rate (HR). Animals were acclimated to the system overnight and baseline CV parameters collected. […] A blood sample was collected from each animal through the catheter line at pre-dose and 2 hours post-dose for compound concentration quantification. Hemodynamic measures were recorded for ten hours post-dose. Fifty-four male rats were used for these studies and they were ordered to be received at a body weight range of 250-275 grams. They were single housed under controlled conditions of temperature (21±1° C.), relative humidity (36±1%) and placed in a 12-hr light-dark cycle (lights on at 6:00 AM and off at 6:00 PM) room at SmartLabs vivarium (21 Erie Street, Cambridge, MA) under protocol MIL-110. Animals were allowed ad libitum access to chow (LabDiet Prolab Isopro RMH 3000, St. Louis, MO) and water. Two sets of studies were carried out. […] […] Formulations prepared were thawed less than 4 hours before dosing and stored at room temperature or were made less than 2 hours before dosing and stored at room temperature.\nThis study utilized ADInstruments LabChart (v8) to collect hemodynamic data from conscious, freely moving rats tethered to a blood pressure transducer (Harvard Apparatus cat #APT300). Following an overnight acclimation to the tether and pressure transducer, animals were dosed following a 1-hr baseline recording period. Animals were administered a single oral (P.O.) dose of the sodium salt form of Compound I-14 or vehicle at a dose volume of 10 mL/kg. Data collection was continued for 10 hours post-dose.\nADInstruments LabChart (v8) was used to monitor and export hemodynamic data. Blood pressure and heart rate were continuously monitored, and data were collected at 1000 data points per second then averaged into 10-minute bins for analysis. Change from baseline MAP (ΔBMAP) and HR (ΔBHR) were calculated using the pre-dose baseline averaged over the 1-hr period prior to dosing using Microsoft Excel for Microsoft 365. This 10-minute bin dataset was used to determine peak ΔVMAP, time peak ΔVMAP, peak ΔVHR and time of peak ΔVHR. The dataset was further consolidated into 1-hr bins for the MAP and HR figures and the analysis of ΔBMAP, ΔBMAP, and ΔBHR. The definitions of these terms/abbreviations are summarized below:\nStatistical analyses were performed in Graphpad Prism (v8). Significance, as compared to vehicle-treated rats, for ΔBMAP and ΔBHR data was determined by 2-way repeated measures ANOVA followed by a Dunnett's multiple comparisons test, if there was a missing data point, a mixed-effect analysis was utilized. Vehicle-adjusted MAP (ΔVMAP) was calculated by subtracting ΔBMAP of the vehicle group from the ΔBMAP of each dose group at each timepoint. Vehicle-adjusted HR (ΔVHR) was calculated in a similar manner to ΔVMAP.\nAnalogous studies to the ones described above were carried out with Compound I-20. […] A blood sample was collected from each animal through the catheter line at pre-dose and 2 hours post-dose for compound concentration quantification. Hemodynamic measures were recorded for ten hours post-dose."}, "[1]": {"test_system": "cAMP response element-binding protein (CREB)", "experiment": "sGC stimulator induced phosphorylation of CREB in rat primary neurons", "format": "cell-based", "conditions": "Primary neuron, 10 μM DETA-NONOate, free acid, geometrical mean, read-out: pCREB EC50", "protocol": "Neurons were isolated from Sprague Dawley rat embryos on embryonic day 18 (E18). Approximately 10 embryos were obtained from each rat, and whole brains were isolated from the embryos. Hippocampus and cortex were dissected from the brains under a stereoscopic microscope using two fine tweezers. The meninges were carefully removed. After dissection, the tissues were chopped and washed gently once with 10 mL of Ca^2+ and Mg^2+ free Hank's balanced salt solution (HBSS, Corning cat #21-022-CM) in a 15-mL conical tube. After washing, 5 mL of a solution of 0.25% trypsin (Invitrogen cat #15090-046) and 0.1% deoxyribonuclease I (DNase I, Sigma cat #DN-25) were added to the tissues, then incubated at 37° C. for 15 min. Next, tissues were washed 3 times with ice-cold HBSS, 3 mL of a solution of 0.1% of DNase I was added, then tissues were slowly pipetted 12 times using a glass Pasteur pipette, followed by centrifugation at 500×g for 10 min. […]\nFor each test concentration, the compound was diluted in 100% DMSO to 100× its final assay concentration. […] Medium was removed, cells were lysed and levels of pCREB was determined according to Cisbio protocols (phospho-CREB (Ser133) catalog #64CREPEG). Plates were read using Envision instrument (PerkinElmer).\npCREB was determined for each well and analyzed with a […] (log(agonist) vs. response-variable slope) using GraphPad Prism Software v.8. […]"}},
  "data": [
    {"smiles": "Oc1nc(-c2cn3ccnc3c(Cc3cccc(F)c3F)n2)ncc1F", "note": "[Compound I-4, 2-(8-(2,3-Difluorobenzyl)imidazo[1,2-a]pyrazin-6-yl)-5-fluoropyrimidin-4-ol]", "values": [
      {"measurement": "maximal reduction of MAP from baseline (ΔBMAP)", "setting": "normotensive rats; formulated in PEG400, 10 mg/kg", "result": 20, "unit": "mm Hg"},
      {"measurement": "time after dosing of maximal/peak ΔBMAP", "setting": "normotensive rats; formulated in PEG400, 10 mg/kg", "result": 50, "unit": "min"}
    ]},
    {"smiles": "Cc1cc(F)c(Cc2nc(-c3ncc(F)c(O)n3)cn3ccnc23)cc1F", "note": "[Compound I-14, 5-fluoro-2-(8-(2,5-difluoro-4-methylbenzyl)imidazo[1,2-a]pyrazin-6-yl)pyrimidin-4-ol]", "values": [
      {"measurement": "EC50", "setting": "[1]", "result": 21, "unit": "nM"},
      {"measurement": "Peak ΔVMAP (mm Hg)", "setting": "normotensive rats; 1 mg/kg single oral dose", "result": "−6.2", "unit": "mm Hg"},
      {"measurement": "Time at Peak", "setting": "normotensive rats; 1 mg/kg single oral dose", "result": 90, "unit": "min"},
      {"measurement": "Peak ΔVMAP (mm Hg)", "setting": "normotensive rats; 3 mg/kg single oral dose", "result": "−10.1", "unit": "mm Hg"},
      {"measurement": "Time at Peak", "setting": "normotensive rats; 3 mg/kg single oral dose", "result": 70, "unit": "min"},
      {"measurement": "Peak ΔVMAP (mm Hg)", "setting": "normotensive rats; 10 mg/kg single oral dose", "result": "−22.3", "unit": "mm Hg"},
      {"measurement": "Time at Peak", "setting": "normotensive rats; 10 mg/kg single oral dose", "result": 30, "unit": "min"},
      {"measurement": "Peak ΔVMAP (mm Hg)", "setting": "normotensive rats; 30 mg/kg single oral dose", "result": "−24.4", "unit": "mm Hg"},
      {"measurement": "Time at Peak", "setting": "normotensive rats; 30 mg/kg single oral dose", "result": 30, "unit": "min"},
      {"measurement": "effect on MAP from baseline and as adjusted from vehicle", "setting": "normotensive rats; single oral dose 3, 10, and 30 mg/kg", "result": "lowered MAP from baseline and as adjusted from vehicle"},
      {"measurement": "no effect dose on ΔBMAP", "setting": "normotensive rats; single oral dose, main effect analysis, simple effects analysis and AOC", "result": 1, "unit": "mg/kg"}
    ]},
    {"smiles": "Oc1nc(-c2cn3ccnc3c(Cc3cc(F)ccc3F)n2)ncc1F", "note": "[Compound I-20, 5-fluoro-2-(8-(2,5-difluorobenzyl)imidazo[1,2-a]pyrazin-6-yl)pyrimidin-4-ol]", "values": [
      {"measurement": "EC50", "setting": "[1]", "result": 13, "unit": "nM"},
      {"measurement": "Peak ΔVMAP (mm Hg)", "setting": "normotensive rats; 1 mg/kg single oral dose", "result": "−14.3", "unit": "mm Hg"},
      {"measurement": "Time at Peak", "setting": "normotensive rats; 1 mg/kg single oral dose", "result": 20, "unit": "min"},
      {"measurement": "Peak ΔVMAP (mm Hg)", "setting": "normotensive rats; 3 mg/kg single oral dose", "result": "−19.2", "unit": "mm Hg"},
      {"measurement": "Time at Peak", "setting": "normotensive rats; 3 mg/kg single oral dose", "result": 20, "unit": "min"},
      {"measurement": "Peak ΔVMAP (mm Hg)", "setting": "normotensive rats; 10 mg/kg single oral dose", "result": "−20.2", "unit": "mm Hg"},
      {"measurement": "Time at Peak", "setting": "normotensive rats; 10 mg/kg single oral dose", "result": 30, "unit": "min"},
      {"measurement": "Peak ΔVMAP (mm Hg)", "setting": "normotensive rats; 30 mg/kg single oral dose", "result": "−38.1", "unit": "mm Hg"},
      {"measurement": "Time at Peak", "setting": "normotensive rats; 30 mg/kg single oral dose", "result": 30, "unit": "min"},
      {"measurement": "peak ΔBMAP", "setting": "normotensive rats; formulated in PEG400, 10 mg/kg", "result": "−26", "unit": "mm Hg"},
      {"measurement": "time after dosing of maximal/peak ΔBMAP", "setting": "normotensive rats; formulated in PEG400, 10 mg/kg", "result": 42, "unit": "min"}
    ]}
  ]
}
